Measured values published in ChEMBL document CHEMBL1128901, “C-Attached aminoalkylindoles: potent cannabinoid mimetics” (Bioorg Med Chem Lett, 1996).
pIC50: −log10 of the molar value.

How the values were obtained:
Mus musculus = organism: Mus musculus; assay: In vitro inhibition of electrically induced contractions in isolated mouse vas deferens (MVD) preparations.; assay type: functional
Cannabinoid receptor = Cannabinoid receptor (Rattus norvegicus, UniProt Q9QZN9+P20272); assay: Compound was evaluated for the inhibition of [3H]WIN-55212-2 binding in rat cerebellum membranes; assay type: cell membranes, Membrane
[1] = molecular target: T1, Cannabinoid receptor (Rattus norvegicus) (UniProt Q9QZN9+P20272); assay: Compound was evaluated for the inhibition of [3H]WIN-55212-2 binding in rat cerebellum membranes at the concentration 1000 nM; assay type: cell membranes; settings: Membrane
[2] = molecular target: T1, Cannabinoid receptor (Rattus norvegicus); assay: Compound was evaluated for the inhibition of [3H]WIN-55212-2 binding in rat cerebellum membranes at the concentration 3000 nM; assay type: cell membranes; settings: Membrane

T1 sequence (P20272 whole entry, looked up): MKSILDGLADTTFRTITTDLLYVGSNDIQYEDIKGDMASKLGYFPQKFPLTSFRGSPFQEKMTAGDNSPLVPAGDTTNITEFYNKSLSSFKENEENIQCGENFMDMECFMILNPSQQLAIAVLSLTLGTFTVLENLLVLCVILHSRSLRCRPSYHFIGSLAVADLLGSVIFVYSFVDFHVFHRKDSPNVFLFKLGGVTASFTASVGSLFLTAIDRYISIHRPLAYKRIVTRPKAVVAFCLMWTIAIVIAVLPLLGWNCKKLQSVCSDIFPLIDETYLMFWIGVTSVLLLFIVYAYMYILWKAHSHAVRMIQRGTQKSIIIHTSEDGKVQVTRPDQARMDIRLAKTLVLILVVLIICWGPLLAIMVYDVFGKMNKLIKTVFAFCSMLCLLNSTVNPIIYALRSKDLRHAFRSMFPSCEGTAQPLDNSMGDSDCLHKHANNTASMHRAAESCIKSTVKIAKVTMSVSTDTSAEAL
T1 sequence (Q9QZN9 whole entry, looked up): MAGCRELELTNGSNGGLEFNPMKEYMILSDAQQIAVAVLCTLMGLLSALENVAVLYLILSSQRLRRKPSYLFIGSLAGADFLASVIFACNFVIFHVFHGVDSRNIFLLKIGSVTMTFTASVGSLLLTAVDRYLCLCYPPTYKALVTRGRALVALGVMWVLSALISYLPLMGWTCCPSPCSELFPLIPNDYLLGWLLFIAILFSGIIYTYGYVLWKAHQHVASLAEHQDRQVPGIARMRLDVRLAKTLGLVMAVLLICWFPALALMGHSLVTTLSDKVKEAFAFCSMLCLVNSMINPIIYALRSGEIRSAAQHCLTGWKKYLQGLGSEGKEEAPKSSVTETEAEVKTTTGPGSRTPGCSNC

Structure (SMILES)	pIC50 (Mus musculus)	IC50 (Cannabinoid receptor) [nM]	other results
CCN1CCCC1Cn1c(C)c(C(=O)c2ccc(OC)cc2)c2ccccc21 (centres undefined)	< 5.00		
COc1ccc(C(=O)c2c(C)n(CC3CCCN3)c3ccccc23)cc1 (centres undefined)	6.66		
CN1CCCCC1Cn1cc(C(=O)c2cccc3ccccc23)c2ccccc21 (centres undefined)	9.33	1.22	
COc1ccc(C(=O)c2c(C)n(CC3CN(C)CCN3C)c3ccccc23)cc1 (centres undefined)	5.85		inhibition [1]: -8%
COc1ccc(C(=O)c2c(C)n(CC3C[S+]([O-])CCN3C)c3ccccc23)cc1 (centres undefined)	< 5.00		inhibition [1]: -10%
CN1CCOCC1Cn1cc(C(=O)c2cccc3ccccc23)c2ccccc21 (centres undefined)	9.40	3	
COc1ccc(C(=O)c2c(C)n(CC3CCCCN3C)c3ccccc23)cc1 (centres undefined)	6.87	699	
COc1ccc(C(=O)c2c(C)n(C3CCCN(C)C3)c3ccccc23)cc1 (centres undefined)			Inhibition (Mus musculus): 80%
COc1ccc(C(=O)c2c(C)n(CC3CCCN3C)c3ccccc23)cc1 (centres undefined)	7.20		inhibition [1]: 53%
COc1ccc(C(=O)c2c(C)n(CC3CCCN(C)C3)c3ccccc23)cc1 (centres undefined)	< 5.00		
COc1ccc(C(=O)c2c(C)n(CC3COCCN3C)c3ccccc23)cc1 (centres undefined)	6.68		inhibition [2]: 43%
CN1CCN(C)C(Cn2cc(C(=O)c3cccc4ccccc34)c3ccccc32)C1 (centres undefined)	7.82	51	
COc1ccc(C(=O)c2c(C)n(C3CCN(C)CC3)c3ccccc23)cc1	< 5.00		
COc1ccc(C(=O)c2c(C)n(C[C@@H]3CCCN3C)c3ccccc23)cc1	7.43	497	
COc1ccc(C(=O)c2cn(CC3CCCCN3C)c3ccccc23)cc1 (centres undefined)	8.59	9.7	
COc1ccc(C(=O)c2c(C)n(CC3CN(C)CCO3)c3ccccc23)cc1 (centres undefined)	< 5.00		
Cc1c(C(=O)c2cccc3ccccc23)c2ccccc2n1CC1CCCCN1C (centres undefined)	8.92	5.4	
Cc1c(C(=O)c2cccc3ccccc23)c2ccccc2n1CC1CCCN1C (centres undefined)	8.62	6.5	
COc1ccc(C(=O)c2c(C)n(CCC3CCCCN3C)c3ccccc23)cc1 (centres undefined)	< 5.00		
O=C(c1cccc2ccccc12)c1cn(CC2CCCCN2)c2ccccc12 (centres undefined)	8.52	6.6	
COc1ccc(C(=O)c2cn(CC3CCCN3C)c3ccccc23)cc1 (centres undefined)	8.10		
COc1ccc(C(=O)c2c(C)n(CC3CSCCN3C)c3ccccc23)cc1 (centres undefined)	5.94		inhibition [1]: 40%
COc1ccc(C(=O)c2c(C)n(C[C@H]3CCCN3C)c3ccccc23)cc1			inhibition [1]: 7%; Inhibition (Mus musculus): 80%
O=C(c1cccc2ccccc12)c1cn(CCN2CCOCC2)c2ccccc12		7.8	
